Data from PubChem BioAssay (NCI).
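Five concentrations, 48 hours, 96-well plates. TGI is the concentration that stops growth completely.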

Legend:
Test in all cases: DTP human tumour cell line panel, 48 h
SN12C renal = tested on: SN12C renal
COLO 205 colon = tested on: COLO 205 colon
SNB-19 CNS = tested on: SNB-19 CNS
MCF7 breast = tested on: MCF7 breast
A498 renal = tested on: A498 renal
NCI-H23 lung = tested on: NCI-H23 lung
UO-31 renal = tested on: UO-31 renal
K-562 leukemia = tested on: K-562 leukemia
ACHN renal = tested on: ACHN renal
HL-60(TB) leukemia = tested on: HL-60(TB) leukemia
A549 NSCLC = tested on: A549 NSCLC
M14 melanoma = tested on: M14 melanoma
SK-MEL-28 melanoma = tested on: SK-MEL-28 melanoma
UACC-62 melanoma = tested on: UACC-62 melanoma
SF-539 CNS = tested on: SF-539 CNS
MALME-3M melanoma = tested on: MALME-3M melanoma
HT29 colon = tested on: HT29 colon
MDA-N = tested on: MDA-N
MDA-MB-231 breast = tested on: MDA-MB-231 breast
SNB-75 CNS = tested on: SNB-75 CNS
SF-268 CNS = tested on: SF-268 CNS
U251 CNS = tested on: U251 CNS
OVCAR-5 ovarian = tested on: OVCAR-5 ovarian
NCI-H226 lung = tested on: NCI-H226 lung
CCRF-CEM leukemia = tested on: CCRF-CEM leukemia
T-47D breast = tested on: T-47D breast
LOX IMVI melanoma = tested on: LOX IMVI melanoma
OVCAR-3 ovarian = tested on: OVCAR-3 ovarian
BT-549 breast = tested on: BT-549 breast
MDA-MB-435 = tested on: MDA-MB-435
OVCAR-4 ovarian = tested on: OVCAR-4 ovarian
SK-MEL-2 melanoma = tested on: SK-MEL-2 melanoma
HCC-2998 colon = tested on: HCC-2998 colon
OVCAR-8 ovarian = tested on: OVCAR-8 ovarian
SF-295 CNS = tested on: SF-295 CNS
UACC-257 melanoma = tested on: UACC-257 melanoma
HOP-62 NSCLC = tested on: HOP-62 NSCLC
CAKI-1 renal = tested on: CAKI-1 renal
SK-OV-3 ovarian = tested on: SK-OV-3 ovarian
SW-620 colon = tested on: SW-620 colon
NCI-H522 lung = tested on: NCI-H522 lung
HCT-15 colon = tested on: HCT-15 colon
PC-3 prostate = tested on: PC-3 prostate
HCT-116 colon = tested on: HCT-116 colon
RPMI-8226 leukemia = tested on: RPMI-8226 leukemia
RXF 393 renal = tested on: RXF 393 renal
SK-MEL-5 melanoma = tested on: SK-MEL-5 melanoma
HS 578T breast = tested on: HS 578T breast
NCI-H460 lung = tested on: NCI-H460 lung
KM12 colon = tested on: KM12 colon
786-0 renal = tested on: 786-0 renal
SR leukemia = tested on: SR leukemia
IGROV1 ovarian = tested on: IGROV1 ovarian
EKVX NSCLC = tested on: EKVX NSCLC
DU-145 prostate = tested on: DU-145 prostate
NCI/ADR-RES ovarian = tested on: NCI/ADR-RES ovarian
MOLT-4 leukemia = tested on: MOLT-4 leukemia
HOP-92 NSCLC = tested on: HOP-92 NSCLC
TK-10 renal = tested on: TK-10 renal

SMILES: NC(=O)c1nnsc1N/N=C/c1ccc([N+](=O)[O-])cc1
- TGI (SN12C renal): > 100 µM
- TGI (COLO 205 colon): > 100 µM
- TGI (SNB-19 CNS): > 100 µM
- TGI (MCF7 breast): > 100 µM
- TGI (A498 renal): > 100 µM
- TGI (NCI-H23 lung): > 100 µM
- TGI (UO-31 renal): > 100 µM
- TGI (K-562 leukemia): > 100 µM
- TGI (ACHN renal): > 100 µM
- TGI (HL-60(TB) leukemia): > 100 µM
- TGI (A549 NSCLC): > 100 µM
- TGI (M14 melanoma): > 100 µM
- TGI (SK-MEL-28 melanoma): > 100 µM
- TGI (UACC-62 melanoma): > 100 µM
- TGI (SF-539 CNS): > 100 µM
- TGI (MALME-3M melanoma): > 100 µM
- TGI (HT29 colon): > 100 µM
- TGI (MDA-N): > 100 µM
- TGI (MDA-MB-231 breast): > 100 µM
- TGI (SNB-75 CNS): > 100 µM
- TGI (SF-268 CNS): > 100 µM
- TGI (U251 CNS): > 100 µM
- TGI (OVCAR-5 ovarian): > 100 µM
- TGI (NCI-H226 lung): > 100 µM
- TGI (CCRF-CEM leukemia): > 100 µM
- TGI (T-47D breast): > 100 µM
- TGI (LOX IMVI melanoma): > 100 µM
- TGI (OVCAR-3 ovarian): > 100 µM
- TGI (BT-549 breast): 88.6 µM
- TGI (MDA-MB-435): > 100 µM
- TGI (OVCAR-4 ovarian): > 100 µM
- TGI (SK-MEL-2 melanoma): > 100 µM
- TGI (HCC-2998 colon): > 100 µM
- TGI (OVCAR-8 ovarian): > 100 µM
- TGI (SF-295 CNS): > 100 µM
- TGI (UACC-257 melanoma): > 100 µM
- TGI (HOP-62 NSCLC): > 100 µM
- TGI (CAKI-1 renal): > 100 µM
- TGI (SK-OV-3 ovarian): > 100 µM
- TGI (SW-620 colon): > 100 µM
- TGI (NCI-H522 lung): > 100 µM
- TGI (HCT-15 colon): > 100 µM
- TGI (PC-3 prostate): > 100 µM
- TGI (HCT-116 colon): > 100 µM
- TGI (RPMI-8226 leukemia): > 100 µM
- TGI (RXF 393 renal): > 100 µM
- TGI (SK-MEL-5 melanoma): > 100 µM
- TGI (HS 578T breast): > 100 µM
- TGI (NCI-H460 lung): > 100 µM
- TGI (KM12 colon): > 100 µM
- TGI (786-0 renal): > 100 µM
- TGI (SR leukemia): > 100 µM
- TGI (IGROV1 ovarian): > 100 µM
- TGI (EKVX NSCLC): > 100 µM
- TGI (DU-145 prostate): > 100 µM
- TGI (NCI/ADR-RES ovarian): > 100 µM
- TGI (MOLT-4 leukemia): > 100 µM

SMILES: Cc1[nH]c(-c2ccccc2)c(O)c1C(=O)OC12CC3CC(CC(C3)C1)C2
- TGI (SN12C renal): 30.1 µM
- TGI (COLO 205 colon): 27 µM
- TGI (SNB-19 CNS): 28.3 µM
- TGI (MCF7 breast): 28 µM
- TGI (A498 renal): 35 µM
- TGI (NCI-H23 lung): 31.6 µM
- TGI (UO-31 renal): 32.6 µM
- TGI (K-562 leukemia): > 100 µM
- TGI (ACHN renal): 29.7 µM
- TGI (HL-60(TB) leukemia): > 100 µM
- TGI (A549 NSCLC): 25.7 µM
- TGI (M14 melanoma): 24.9 µM
- TGI (SK-MEL-28 melanoma): 27.8 µM
- TGI (UACC-62 melanoma): 32.8 µM
- TGI (SF-539 CNS): 23.7 µM
- TGI (MALME-3M melanoma): 28 µM
- TGI (HT29 colon): 17.2 µM
- TGI (MDA-N): 31.2 µM
- TGI (MDA-MB-231 breast): 33.1 µM
- TGI (SNB-75 CNS): 23.1 µM
- TGI (SF-268 CNS): 27.2 µM
- TGI (U251 CNS): 28.2 µM
- TGI (HOP-92 NSCLC): 34.8 µM
- TGI (OVCAR-5 ovarian): 26.8 µM
- TGI (NCI-H226 lung): 27.1 µM
- TGI (CCRF-CEM leukemia): > 100 µM
- TGI (T-47D breast): 29.5 µM
- TGI (OVCAR-3 ovarian): 27.8 µM
- TGI (BT-549 breast): 31.8 µM
- TGI (MDA-MB-435): 28.6 µM
- TGI (OVCAR-4 ovarian): 34.4 µM
- TGI (SK-MEL-2 melanoma): 31.3 µM
- TGI (OVCAR-8 ovarian): 25.8 µM
- TGI (SF-295 CNS): 14.1 µM
- TGI (UACC-257 melanoma): 31.2 µM
- TGI (HOP-62 NSCLC): 28.1 µM
- TGI (CAKI-1 renal): 35.4 µM
- TGI (SK-OV-3 ovarian): 28.1 µM
- TGI (SW-620 colon): 29.7 µM
- TGI (NCI-H522 lung): 22.9 µM
- TGI (HCT-15 colon): 27.4 µM
- TGI (PC-3 prostate): 28.9 µM
- TGI (HCT-116 colon): 30.4 µM
- TGI (RPMI-8226 leukemia): > 100 µM
- TGI (RXF 393 renal): 20.1 µM
- TGI (SK-MEL-5 melanoma): 28 µM
- TGI (HS 578T breast): 25.9 µM
- TGI (NCI-H460 lung): 21.3 µM
- TGI (KM12 colon): 19.3 µM
- TGI (786-0 renal): 27 µM
- TGI (SR leukemia): 44 µM
- TGI (IGROV1 ovarian): 27.4 µM
- TGI (EKVX NSCLC): 27 µM
- TGI (DU-145 prostate): 29.3 µM
- TGI (NCI/ADR-RES ovarian): 27.3 µM
- TGI (MOLT-4 leukemia): 32.3 µM

SMILES: COc1ccc(NC(=O)CC(=O)NN)cc1
- TGI (SN12C renal): > 100 µM
- TGI (COLO 205 colon): > 100 µM
- TGI (SNB-19 CNS): > 100 µM
- TGI (MCF7 breast): > 100 µM
- TGI (NCI-H23 lung): > 100 µM
- TGI (UO-31 renal): > 100 µM
- TGI (K-562 leukemia): > 100 µM
- TGI (ACHN renal): > 100 µM
- TGI (HL-60(TB) leukemia): > 100 µM
- TGI (A549 NSCLC): > 100 µM
- TGI (UACC-62 melanoma): > 100 µM
- TGI (SF-539 CNS): > 100 µM
- TGI (MALME-3M melanoma): > 100 µM
- TGI (HT29 colon): > 100 µM
- TGI (MDA-N): > 100 µM
- TGI (MDA-MB-231 breast): > 100 µM
- TGI (SNB-75 CNS): > 100 µM
- TGI (SF-268 CNS): > 100 µM
- TGI (U251 CNS): > 100 µM
- TGI (HOP-92 NSCLC): > 100 µM
- TGI (OVCAR-5 ovarian): > 100 µM
- TGI (NCI-H226 lung): > 100 µM
- TGI (CCRF-CEM leukemia): > 100 µM
- TGI (T-47D breast): > 100 µM
- TGI (LOX IMVI melanoma): > 100 µM
- TGI (OVCAR-3 ovarian): > 100 µM
- TGI (BT-549 breast): > 100 µM
- TGI (MDA-MB-435): > 100 µM
- TGI (OVCAR-4 ovarian): > 100 µM
- TGI (SK-MEL-2 melanoma): > 100 µM
- TGI (OVCAR-8 ovarian): > 100 µM
- TGI (TK-10 renal): > 100 µM
- TGI (SF-295 CNS): > 100 µM
- TGI (UACC-257 melanoma): > 100 µM
- TGI (HOP-62 NSCLC): > 100 µM
- TGI (CAKI-1 renal): > 100 µM
- TGI (SK-OV-3 ovarian): > 100 µM
- TGI (SW-620 colon): > 100 µM
- TGI (NCI-H522 lung): > 100 µM
- TGI (HCT-15 colon): > 100 µM
- TGI (PC-3 prostate): > 100 µM
- TGI (HCT-116 colon): > 100 µM
- TGI (RPMI-8226 leukemia): > 100 µM
- TGI (RXF 393 renal): > 100 µM
- TGI (SK-MEL-5 melanoma): > 100 µM
- TGI (HS 578T breast): > 100 µM
- TGI (NCI-H460 lung): > 100 µM
- TGI (KM12 colon): > 100 µM
- TGI (786-0 renal): > 100 µM
- TGI (SR leukemia): > 100 µM
- TGI (IGROV1 ovarian): > 100 µM
- TGI (EKVX NSCLC): > 100 µM
- TGI (DU-145 prostate): > 100 µM
- TGI (NCI/ADR-RES ovarian): > 100 µM
- TGI (MOLT-4 leukemia): > 100 µM
